Experimental data as given in patent US8394408B2, “Gastric retentive extended-release dosage forms comprising combinations of a non-opioid analgesic and an opioid analgesic” (Depomed, Inc., priority 2008, dated 2013).

Legend:
[1] = cited from earlier work
[2] = Oxycodone degradation (DHOXY/OXY), effect of binder, 40° C., 75% RH open dish 8 days; type: physicochemical

SMILES | Solubility in water [1] [mg/mL] | DHOXY/OXY (%), Physical Blend ([2]; 40° C., 75% RH, open-dish 8 days) [%] | DHOXY/OXY (%), Physical Blend ([2]; t = 0) [%]
COc1ccc2c3c1O[C@H]1C(=O)CC[C@H]4[C@@H](C2)N(C)CC[C@]314.O=C(O)C(O)C(O)C(=O)O [hydrocodone bitartrate] | 62.5 | – | –
COc1ccc2c3c1O[C@H]1C(=O)CC[C@@]4(O)[C@@H](C2)N(C)CC[C@]314.Cl [oxycodone HCl] | – | 0.07 | 0.07
